Source: the supplement of paper PMC11061612

Legend:
Assay in all cases: Bliss excess, mean over the matrix (fraction); higher = more synergy
FU97 (Gastric Carcinoma) = system: FU97 (Gastric Carcinoma)
In short: (§1)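 Bliss excess equals the observed combination effect minus the expected value EA + EB − EA·EB, where EA and EB are the effects of each agent alone. Combination Emax is the second-highest inhibition within the matrix. Inhibition was scaled from CellTiter-Glo 2.0 luminescence, with 0 set by vehicle wells and 1 by blank wells, after 72 hours of two-drug dosing of cells plated in 1536-well plates.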

[1] = system: ECC10 (Gastric Carcinoma)
In short: as §1

[2] = system: OS-RC-2 (Kidney Carcinoma)
In short: as §1

[3] = system: SK-MG-1 (Low Grade Glioma)
In short: as §1

[4] = system: COLO-320-HSR (Colorectal Carcinoma)
In short: as §1

[5] = system: A549 (Lung Adenocarcinoma)
In short: as §1

[6] = system: ONS-76 (Other Solid Carcinomas)
In short: as §1

[7] = system: SISO (Cervical Carcinoma)
In short: as §1

[8] = system: MDST8 (Colorectal Carcinoma)
In short: as §1

U-2-OS (Osteosarcoma) = system: U-2-OS (Osteosarcoma)
In short: as §1

NCI-H2591 (Mesothelioma) = system: NCI-H2591 (Mesothelioma)
In short: as §1

[9] = system: BICR22 (Oral Cavity Carcinoma)
In short: as §1

[10] = system: NCI-H1693 (Lung Adenocarcinoma)
In short: as §1

PA-1 (Ovarian Carcinoma) = system: PA-1 (Ovarian Carcinoma)
In short: as §1

[11] = system: NCI-H2141 (Small Cell Lung Carcinoma)
In short: as §1

CAS-1 (Glioblastoma) = system: CAS-1 (Glioblastoma)
In short: as §1

[12] = system: TT2609-C02 (Thyroid Gland Carcinoma)
In short: as §1

Hs-445 (Non-Cancerous) = system: Hs-445 (Non-Cancerous)
In short: as §1

[13] = system: KARPAS-422 (B-Cell Non-Hodgkin's Lymphoma)
In short: as §1

[14] = system: CCK-81 (Colorectal Carcinoma)
In short: as §1

| Structure (SMILES) | Bliss excess (FU97 (Gastric Carcinoma)) | Bliss excess [1] | Bliss excess [2] | Bliss excess [3] | Bliss excess [4] | Bliss excess [5] | Bliss excess [6] | Bliss excess [7] | Bliss excess [8] | Bliss excess (U-2-OS (Osteosarcoma)) | Bliss excess (NCI-H2591 (Mesothelioma)) | Bliss excess [9] | Bliss excess [10] | Bliss excess (PA-1 (Ovarian Carcinoma)) | Bliss excess [11] | Bliss excess (CAS-1 (Glioblastoma)) | Bliss excess [12] | Bliss excess (Hs-445 (Non-Cancerous)) | Bliss excess [13] | Bliss excess [14] |
| --- | --- | --- | --- | --- | --- | --- | --- | --- | --- | --- | --- | --- | --- | --- | --- | --- | --- | --- | --- | --- |
| Cc1c2c(nn1C)CSCc1cc(n(C)n1)CSc1cc(c3ccccc3c1)OCCCc1c(C(=O)O)n(C)c3c-2c(Cl)ccc13 [AZD5991] + C1CN(CCC1(C(=O)N[C@@H](CCO)C2=CC=C(C=C2)Cl)N)C3=NC=NC4=C3C=CN4 [Capivasertib] (first compound max 1 µM, 7x7, partner max 3 µM) | -0.0174 | 0.0934 | -0.0596 | 0.0354 | 0.0007 | -0.0312 | -0.0003 | -0.0021 | -0.0102 | 0.0114 | -0.0306 | 0.119 | -0.0294 | 0.0437 | 0.0003 | -0.0094 | -0.019 | -0.0545 | -0.132 | 0.0555 |
| NC1(C(=O)N[C@@H](CCO)c2ccc(Cl)cc2)CCN(c2ncnc3[nH]ccc23)CC1 [Capivasertib] + C[C@@H]1COCCN1C2=NC(=NC(=C2)C3(CC3)[S@](=N)(=O)C)C4=C5C=CNC5=NC=C4 [AZD6738] (first compound max 10 µM, 7x7, partner max 10 µM) | -0.0176 | -0.0163 | -0.0398 | -0.034 | -0.0883 | -0.0414 | -0.0636 | -0.0474 | -0.0277 | -0.0326 | 0.0021 | -0.0608 | -0.0526 | -0.0938 | 0.0049 | -0.0706 | -0.0158 | -0.0531 | -0.0575 | -0.139 |
| COc1cc2ncnc(Nc3ccc(F)c(Cl)c3)c2cc1OCCCN1CCOCC1 [Gefitinib] + CC(C)n1c(=O)n(C)c2cnc3cc(F)c(-c4ccc(OCCCN5CCCCC5)nc4)cc3c21 [AZD1390] (first compound max 10 µM, 7x7, partner max 0.3 µM) | -0.0177 | -0.0231 | -0.0817 | -0.078 | -0.0398 | -0.0544 | -0.0386 | -0.0627 | -0.0584 | -0.0496 | -0.0801 | -0.013 | -0.04 | -0.0949 | -0.0464 | -0.0603 | -0.0716 | -0.0356 | -0.0363 | -0.072 |
| Cc1cc2ncnn2cc1Nc1ncc2c(n1)n(C1CCOCC1)c(=O)n2C [AZD7648] + C=CCn1c(=O)c2cnc(Nc3ccc(N4CCN(C)CC4)cc3)nc2n1-c1cccc(C(C)(C)O)n1 [AZD1775] (first compound max 10 µM, partner max 1 µM) | 0.0004 | 0.0498 | -0.0474 | 0.009 | -0.0082 | -0.0718 | -0.0046 | -0.0005 | 0.0177 | 0.0232 | 0.0043 | -0.0323 | 0.0055 | -0.0024 | -0.0515 | 0.0219 | -0.0218 | -0.0501 | -0.187 | 0.0285 |
| COc1cccc(OCCCN)c1-c1cc(Nc2cnc(C#N)cn2)n[nH]1 [Prexasertib] + C=CCn1c(=O)c2cnc(Nc3ccc(N4CCN(C)CC4)cc3)nc2n1-c1cccc(C(C)(C)O)n1 [AZD1775] (first compound max 1 µM, partner max 1 µM) | 0.0052 | 0.115 | -0.0531 | 0.0712 | 0.136 | 0.139 | -0.0299 | 0.0814 | 0.0758 | 0.0506 | 0.0951 | 0.0175 | -0.0139 | 0.03 | -0.0348 | -0.0363 | 0.0015 | -0.0366 | 0.0841 | 0.0523 |
| Cc1cc2ncnn2cc1Nc1ncc2c(n1)n(C1CCOCC1)c(=O)n2C [AZD7648] + CCN(CCO)CCCOc1ccc2c(Nc3cc(CC(=O)Nc4cccc(F)c4)[nH]n3)ncnc2c1 [AZD2811] (first compound max 10 µM, 7x7, partner max 1 µM) | -0.0667 | -0.047 | 0.0201 | 0.0477 | 0.0372 | -0.0025 | 0.0443 | 0.0662 | 0.0619 | 0.0294 | 0.0506 | 0.0239 | -0.0059 | 0.0239 | 0.0625 | 0.0895 | 0.0149 | 0.0394 | -0.0417 | 0.0699 |
| CC1(C)CCC(CN2CCN(c3ccc(C(=O)NS(=O)(=O)c4ccc(NCC5CCOCC5)c([N+](=O)[O-])c4)c(Oc4cnc5[nH]ccc5c4)c3)CC2)=C(c2ccc(Cl)cc2)C1 [Venetoclax] + Cc1cc2ncnn2cc1Nc1ncc2c(n1)n(C1CCOCC1)c(=O)n2C [AZD7648] (first compound max 1 µM, 7x7, partner max 10 µM) | -0.0387 | 0.0065 | -0.0584 | -0.0351 | -0.0098 | -0.0445 | -0.0499 | -0.01 | -0.0151 | -0.0178 | -0.0384 | -0.0376 | 0.0211 | -0.0014 | -0.0491 | -0.05 | -0.0014 | -0.0081 | 0.0157 | -0.0114 |
| Cc1c2c(nn1C)CSCc1cc(n(C)n1)CSc1cc(c3ccccc3c1)OCCCc1c(C(=O)O)n(C)c3c-2c(Cl)ccc13 [AZD5991] + Cc1cc2ncnn2cc1Nc1ncc2c(n1)n(C1CCOCC1)c(=O)n2C [AZD7648] (first compound max 1 µM, 7x7, partner max 10 µM) | -0.044 | -0.0409 | -0.068 | -0.0349 | -0.0184 | -0.111 | -0.0236 | -0.0221 | -0.0487 | -0.0318 | -0.0106 | 0.0158 | -0.026 | -0.0774 | -0.0101 | -0.0723 | -0.038 | -0.0109 | -0.0008 | -0.0103 |
| COc1cccc(OCCCN)c1-c1cc(Nc2cnc(C#N)cn2)n[nH]1 [Prexasertib] + O=C(c1cc(Cc2n[nH]c(=O)c3ccccc23)ccc1F)N1CCN(C(=O)C2CC2)CC1 [Olaparib] (first compound max 1 µM, 7x7, partner max 10 µM) | -0.0288 | -0.0685 | -0.0181 | 0.0026 | -0.131 | -0.0109 | -0.123 | 0.0003 | -0.0484 | -0.0478 | -0.0683 | -0.0685 | -0.1 | 0.0083 | -0.0509 | -0.0979 | -0.0062 | -0.0358 | -0.044 | -0.12 |
| COc1nnc2ccc(N3CCC(c4ccc(OCCN5CCN(C)C(=O)[C@H]5C)cc4)CC3)nn12 [AZD5153] + C[C@@H]1COCCN1C2=NC(=NC(=C2)C3(CC3)[S@](=N)(=O)C)C4=C5C=CNC5=NC=C4 [AZD6738] (first compound max 1 µM, 7x7, partner max 10 µM) | 0.0043 | 0.0654 | 0.0699 | -0.0065 | 0.0292 | -0.0292 | -0.0698 | 0.008 | 0.0544 | 0.0409 | 0.0634 | -0.116 | -0.0383 | -0.0502 | 0.043 | 0.0116 | 0.0179 | -0.0475 | -0.0759 | 0.0184 |
| CC1(C)CCC(CN2CCN(c3ccc(C(=O)NS(=O)(=O)c4ccc(NCC5CCOCC5)c([N+](=O)[O-])c4)c(Oc4cnc5[nH]ccc5c4)c3)CC2)=C(c2ccc(Cl)cc2)C1 [Venetoclax] + C[C@@H](Nc1cc(F)cc(F)c1)c1cc(C(=O)N(C)C)cc2c(=O)cc(N3CCOCC3)oc12 [AZD8186] (first compound max 1 µM, 7x7, partner max 3 µM) | -0.0019 | 0.0539 | -0.0629 | -0.0149 | -0.0052 | -0.0073 | -0.025 | -0.0268 | -0.0304 | -0.0269 | -0.0378 | -0.0378 | -0.034 | -0.0401 | 0.0074 | -0.04 | -0.0251 | 0.0888 | 0.0808 | -0.0287 |
